# Data from patent US10557853B2 (priority 2012, dated 2020).
# Several values for one entry are separate records, joined by “and”; a condition that tells them apart may be missing. Equal entries are not always repeated. Entries after “also recorded” stand apart in the source; their conditions may differ.
# Experiments:
# GST-M1-1 [1] = target: T1, GST-M1-1 (Homo sapiens, UniProt P09488); assay: Displacement (inhibitor screening) assay with sensor 14-GST-M1-1 complex; format: binding; settings: 50 μM drug, sensor 14 90 nM, GST M1-1 90 nM
# T1 construct: purchased Oxford Biomedical Research (a second source is given: Israel Structural Proteomics Center, recombinant)
# T1 sequence (P09488 2-218 limits assumed): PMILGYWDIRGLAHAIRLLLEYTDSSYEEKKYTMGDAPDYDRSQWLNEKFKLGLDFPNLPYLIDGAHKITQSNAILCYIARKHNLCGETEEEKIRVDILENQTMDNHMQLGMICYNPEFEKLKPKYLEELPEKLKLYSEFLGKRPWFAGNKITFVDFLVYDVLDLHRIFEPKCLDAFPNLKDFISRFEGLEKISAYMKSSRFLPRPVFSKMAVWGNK
# Procedure: A possible advantage of such systems, however, is that they abrogate the need for using labelled substrates and following the reaction kinetics. Such sensors could, therefore, complement other label-free enzyme assays that rely on indicator displacement mechanisms.
# The sensor 14-GST-M1-1 complex was treated with a random library of known drugs.
# [2] = system: MDA-MB-231 cancer cells, overexpressing GST-P1-1; assay: Live cell fluorescence imaging, MDA-MB-231; format: cell-based; settings: 2 μM, 15 minutes at 37° C.
# Procedure: GST-P1-1 is a cytosolic protein, whereas DNA is located in the nucleouse.
# MDA-MB-231 cells were maintained in RPMI supplemented with 10% FBS, L-glutamine, and antibiotics. […] Cell images were analyzed using imageJ.
# dsDNA = assay: Fluorescence response to double-stranded DNA; format: binding; settings: for fluorescence response to addition of dsDNA (FIG. 21e): 100 nM sensor or TO, 400 nM dsDNA, phosphate buffer 5 mM pH 6.5
# Procedure: Different 10 derivatives (Table 3) were incubated with increasing concentrations of double-stranded DNA and compared their fluorescence emission prior to and after their incubation in PBS buffer, pH=6.5 (FIG. 9).
# GST-A1-1 = target: T2, GST-A1-1 (Homo sapiens, UniProt P08263); assay: GST sensing: fluorescence response to GST-A1-1; format: binding; settings: 100 nM sensor, 90 nM isozyme
# T2 construct: purchased Oxford Biomedical Research (a second source is given: Israel Structural Proteomics Center, recombinant)
# T2 sequence (P08263 2-222 limits assumed): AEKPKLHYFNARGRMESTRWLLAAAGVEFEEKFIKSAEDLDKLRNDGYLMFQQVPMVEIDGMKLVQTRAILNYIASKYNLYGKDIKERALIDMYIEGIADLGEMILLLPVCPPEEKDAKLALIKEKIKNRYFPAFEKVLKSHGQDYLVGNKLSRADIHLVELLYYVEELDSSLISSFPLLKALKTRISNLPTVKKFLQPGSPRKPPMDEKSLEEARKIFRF
# Procedure: (§1) The most efficient TOPI sensors were identified (FIG. 12) by measuring the fluorescence of the six sensors (100 nM) in the absence and presence of their targets (90 nM) (FIG. 13).
# (§2) Based on the obtained binding constants (FIG. 15), a concentration of 100 nM sensor was chosen for GST sensing. This concentration should ensure strong binding and a high S/N ratio.
# GST-P1-1 [3] = target: T3, GST-P1-1 (Homo sapiens, UniProt P09211); assay: GST sensing: fluorescence response to GST-P1-1; format: binding; settings: 100 nM sensor
# T3 construct: purchased Oxford Biomedical Research (a second source is given: Israel Structural Proteomics Center, recombinant)
# Procedure: as §1, §2
# GST-A2-2 [4] = target: T4, GST-A2-2 (Homo sapiens, UniProt P09210); assay: GST sensing: fluorescence response to GST-A2-2; format: binding; settings: 100 nM sensor, 90 nM isozyme
# T4 construct: purchased Oxford Biomedical Research (a second source is given: Israel Structural Proteomics Center, recombinant)
# T4 sequence (P09210 2-222 limits assumed): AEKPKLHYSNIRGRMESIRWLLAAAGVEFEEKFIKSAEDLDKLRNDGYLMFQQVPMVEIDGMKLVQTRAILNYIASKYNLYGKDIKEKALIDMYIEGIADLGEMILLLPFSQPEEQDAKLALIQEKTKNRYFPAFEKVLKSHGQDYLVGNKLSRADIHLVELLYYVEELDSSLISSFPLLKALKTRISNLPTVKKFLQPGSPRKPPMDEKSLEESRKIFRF
# Procedure: as §1, §2
# GST-M1-1 [5] = target: T1, GST-M1-1; assay: GST sensing: fluorescence response to GST-M1-1; format: binding; settings: 100 nM sensor
# Procedure: as §1, §2
# Two different mixtures of GST isoforms were prepared: one that contained all the GST isoforms (20 nM of each GST, in total 160 nM) (A1-1k2-2, P1-1, M1-1, T1-1, O1-1, Z1-1, and K1-1) and the second mixture contained all the GST isoforms except GST-M1-1.
# GST-P1-1 [6] = target: T3, GST-P1-1; assay: GST kinetic measurements and inhibitory constants (CDNB/GSH), GST-P1-1; format: biochemical; settings: Morrison fit; GSH 3 mM, CDNB 1.5 mM; read-out: approximate inhibition constant Ki, GST-P1-1
# Procedure: (§3) (FIGS. 16- and 19). The concentrations of different GSTs, GSH, and CDNB were 20 nM, 350 μM, and 700 μM, respectively. The GST activity was measured spectrophotometrically using chloro-2,4-dinitrobenzene (CDNB) and GSH as substrates, in phosphate buffer (10 mM, pH 6.5). In a typical experiment, GST and sensors 14 or 140 were incubated for 10 min at 25° C. and then GSH and CDNB were subsequently added. The formation of S-(2,4-dinitrophenyl)-glutathione was monitored using the microplate reader at λ=340 nm. […] The concentrations of GSH and CDNB were 3 mM and 1.5 mM, respectively. The Km values were determined using 20 nM of each GST isoform, 3 mM GSH, and variable CDNB concentrations (50 μM-2 mM). Data were fit to the Michaelis-Menten equation using Sigmaplot version 12.0 statistical software (Systat) to obtain the Km values.
# (§4) The data were analyzed using Graphpad Prism 6.0 and fitted to the Morrison equation for tight binding substrates (FIG. 18 and FIG. 19(b,c)).
# (§5) [formula] where Y is the enzyme activity, X is different concentrations of inhibitor (compound 14 or 140), E is the enzyme concentration, S is the concentration of substrate, Km is the Michaelis-Menten constant determined in an experiment without inhibitor, and V0 is the initial velocity.
# GST-P1-1 [7] = target: T3, GST-P1-1; assay: Fluorescence binding study, dissociation constant with GST-P1-1; settings: fluorescence titration, phosphate buffer 5 mM pH 6.5; read-out: approximate dissociation constant Kd, GST-P1-1
# Procedure: The approximate dissociation constants were determined for GST-M1-1 and GST-P1-1. For these experiments, the concentration of the sensor was chosen according to the enzymatic assays (Ki values, FIG. 18, 19). It was chosen to be lower than the Ki (expected Kd), but such that would also generate a detectable and reproducible emission signal in the plate reader. […] The data were analyzed using Graphpad Prism 6.0 and fitted to the equation: Y=Bmax·X/(kd+X) where Bmax is the maximum binding and X is the concentration of protein.
# GST-A2-2 [8] = target: T4, GST-A2-2; assay: GST kinetic measurements and inhibitory constants (CDNB/GSH), GST-A2-2; format: biochemical; settings: Morrison fit; GSH 3 mM, CDNB 1.5 mM; read-out: approximate inhibition constant Ki, GST-A2-2
# Procedure: as §3, §4, §5
# streptavidin (SAv) = streptavidin (SAv) (Streptomyces avidinii, UniProt P22629); assay: SAv sensing: fluorescence response of TOPI sensors; format: binding; settings: 100 nM sensor, 90 nM SAv
# Procedure: as §1
# (§6) Fluorescence values were recorded immediately after addition of the proteins (FIGS. 12d and 13b).
# avidin (Av) = avidin (Av) (Gallus gallus, UniProt P02701); assay: Av sensing: fluorescence response of TOPI sensors; format: binding; settings: 100 nM sensor, 90 nM Av; for enhancement in fluorescence emission upon addition of Av: phosphate buffer 15 mM pH 7.3
# Procedure: as §1, §6
# AChE [9] = target: T5, AChE (Tetronarce californica, UniProt P04058); assay: AChE kinetic measurements (Ellman method); format: biochemical; settings: for inhibition of AChE activity: 8 pM AChE, sensor 36 50 nM, sensor 37 2 μM
# T5 construct: gift from Prof; Israel Silman Lab (Weizmann Institute of Science)
# Procedure: The AChE activity was measured spectrophotometrically using 5,5′-dithiobis(2-nitrobenzoic acid) (DTNB) and acetylthiocholine iodide as substrates, in phosphate buffer (50 mM, pH 8.0). […] The final concentrations of AChE, DTNB, and acetylthiocholine iodide were 8 pM, 0.4 mM, and 0.4 mM, respectively.
# AChE [10] = target: T5, AChE; assay: AChE sensing: fluorescence response of TOPI sensors; format: binding; settings: 100 nM sensor, 90 nM AChE
# Procedure: Fluorescence values were recorded immediately after addition of the proteins (FIGS. 12a and 13a).
# healthy MCF-10A cells = assay: Live cell fluorescence imaging, MCF-10A; format: cell-based; settings: 2 μM
# Chain of streptavidin (SAv) (P22629 25-183): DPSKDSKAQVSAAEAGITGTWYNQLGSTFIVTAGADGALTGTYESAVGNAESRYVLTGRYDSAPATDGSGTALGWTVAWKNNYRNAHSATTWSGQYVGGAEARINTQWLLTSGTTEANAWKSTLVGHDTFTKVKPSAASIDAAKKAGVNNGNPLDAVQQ
# Chain of avidin (Av) (P02701 25-152): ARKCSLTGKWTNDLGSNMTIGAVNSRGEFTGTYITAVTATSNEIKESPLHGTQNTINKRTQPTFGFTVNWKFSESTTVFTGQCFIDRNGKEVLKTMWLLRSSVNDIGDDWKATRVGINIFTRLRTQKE
# T3 sequence (P09211 2-210 limits assumed): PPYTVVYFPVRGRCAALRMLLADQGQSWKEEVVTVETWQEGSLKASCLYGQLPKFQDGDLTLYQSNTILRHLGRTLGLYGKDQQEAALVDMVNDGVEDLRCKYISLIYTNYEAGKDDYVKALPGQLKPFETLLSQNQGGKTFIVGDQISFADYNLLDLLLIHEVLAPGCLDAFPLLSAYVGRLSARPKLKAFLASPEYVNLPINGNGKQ
# T5 sequence (P04058 22-564): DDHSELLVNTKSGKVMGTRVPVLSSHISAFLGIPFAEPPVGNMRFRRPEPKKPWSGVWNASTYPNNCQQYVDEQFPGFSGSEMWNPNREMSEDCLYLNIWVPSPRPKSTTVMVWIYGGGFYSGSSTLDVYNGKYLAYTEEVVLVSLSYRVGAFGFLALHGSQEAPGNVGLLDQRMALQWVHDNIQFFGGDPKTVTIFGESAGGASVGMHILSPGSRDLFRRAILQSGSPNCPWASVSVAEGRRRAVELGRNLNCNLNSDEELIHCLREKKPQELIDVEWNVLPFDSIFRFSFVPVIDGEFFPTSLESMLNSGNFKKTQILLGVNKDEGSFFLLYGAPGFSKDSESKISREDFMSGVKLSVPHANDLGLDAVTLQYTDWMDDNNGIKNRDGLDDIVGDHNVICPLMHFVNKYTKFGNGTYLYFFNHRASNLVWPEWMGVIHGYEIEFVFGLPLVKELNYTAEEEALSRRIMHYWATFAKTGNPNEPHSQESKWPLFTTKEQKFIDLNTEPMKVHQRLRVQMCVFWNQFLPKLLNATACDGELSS
smiles,measurement,setting,value
"C=C(CC)C(=O)c1ccc(OCC(=O)O)c(Cl)c1Cl [EA, Ethacrynic acid]",displacement of sensor 14 from GST-M1-1 (reduction in emission),GST-M1-1 [1],selective identification
"CN1C(=Cc2cc[n+](C)c3ccccc23)Sc2ccccc21 [TO, Thiazole Orange, reference compound]",localization of fluorescence in live MDA-MB-231 cells,[2],strong green emission mainly from the nucleus
same,fluorescence response to addition of dsDNA (FIG. 21e),dsDNA,strong fluorescence signal
CCCCCCSC[C@H](NC(=O)CC[C@H](N)C(=O)O)C(=O)NCC(=O)O [s-hexyl GSH],displacement of sensor 14 from GST-M1-1 (reduction in emission),GST-M1-1 [1],selective identification
C=C(CC)C(=O)c1ccc(OCC(=O)NCCCn2cc(CNC(=O)OCCCN3C=C/C(=C\c4sc5ccccc5[n+]4CCCOC(=O)NCc4cn(CCCNC(=O)COc5ccc(C(=O)C(=C)CC)c(Cl)c5Cl)nn4)c4ccccc43)nn2)c(Cl)c1Cl [sensor 14],fluorescence detection of GST-A1-1,GST-A1-1,could not be detected
same,time course of emission in the presence of GST-P1-1,"GST-P1-1 [3]; 90 nM GST P1-1, phosphate buffer 5 mM pH 6.5",slowly increased over a period of 2 hours
same,fluorescence detection of GST-A2-2,GST-A2-2 [4],could not be detected
same,fluorescence enhancement in the presence of GST-M1-1,"GST-M1-1 [5]; 90 nM GST-M1-1, phosphate buffer 5 mM pH 6.5, recorded immediately",55 fold
same,detection of GST-M1-1 in a mixture of GST isozymes,GST-M1-1 [5]; GST-M1-1 20 nM plus seven additional GSTs 20 nM each,selective detection of GST-M1-1 in a mixture of isoforms
same,Ki,GST-P1-1 [6],0.049 µM
same,Kd,GST-P1-1 [7],0.038 µM
same,Ki,GST-A2-2 [8],0.02 µM
same,fluorescence response to addition of dsDNA (FIG. 21e),dsDNA,negligible fluorescence responses; also recorded: did not exhibit any change in its fluorescence at 540 nm
same,change in fluorescence upon addition of dsDNA (Example 3),"dsDNA; 500 nM TO derivative, 100-900 nM dsDNA, PBS pH 6.5, emission 530 nm",did not exhibit any change in its fluorescence at 530 nm
O=C(CCCCC1SCC2NC(=O)NC21)NCCOCCOCCNC(=O)CCN1C=C/C(=C\c2sc3ccccc3[n+]2CCC(=O)NCCOCCOCCNC(=O)CCCCC2SCC3NC(=O)NC32)c2ccccc21.[I-] (centres unmarked) [sensor 34],fluorescence response to SAv,streptavidin (SAv),weakly; also recorded: hardly detected
same,fluorescence response to Av,avidin (Av),strongly
same,enhancement in fluorescence emission upon addition of Av,avidin (Av),16 fold
same,fluorescence response to addition of dsDNA (FIG. 21e),dsDNA,negligible fluorescence responses
O=C(CCCCC1SCC2NC(=O)NC21)NCCNC(=O)CCN1C=C/C(=C\c2sc3ccccc3[n+]2CCC(=O)NCCNC(=O)CCCCC2SCC3NC(=O)NC32)c2ccccc21.[I-] (centres unmarked) [sensor 35],fluorescence response to SAv,streptavidin (SAv),weakly; also recorded: hardly detected
same,fluorescence response to Av,avidin (Av),strongly
same,enhancement in fluorescence emission upon addition of Av,avidin (Av),7 fold
O=C(CCN1C=C/C(=C\c2sc3ccccc3[n+]2CCC(=O)NCCCCCCNc2c3c(nc4ccccc24)CCCC3)c2ccccc21)NCCCCCCNc1c2c(nc3ccccc13)CCCC2.[I-] [sensor 36],inhibition of AChE activity,AChE [9],strong bivalent inhibitor; also recorded: full inhibition at low nanomolar concentration
same,Ki,"AChE [9]; competitive inhibition fit, acetylthiocholine iodide substrate, read-out: approximate inhibition constant Ki, AChE",0.00032 µM and 0.00031 µM
same,detection of AChE,AChE [10],could detect AChE
same,enhancement in fluorescence emission upon addition of AChE,AChE [10]; phosphate buffer 20 mM pH 8,22 fold
O=C(CCN1C=C/C(=C\c2sc3ccccc3[n+]2CCC(=O)NCCNc2c3c(nc4ccccc24)CCCC3)c2ccccc21)NCCNc1c2c(nc3ccccc13)CCCC2.[I-] [sensor 37],inhibition of AChE activity,AChE [9],"inhibited the AChE, activity only at 2 μM"
same,detection of AChE,AChE [10],could detect AChE
"C=C(CC)C(=O)c1ccc(OCC(=O)NCCNC(=O)CCN2C=C/C(=C\c3sc4ccccc4[n+]3CCC(=O)NCCNC(=O)COc3ccc(C(=O)C(=C)CC)c(Cl)c3Cl)c3ccccc32)c(Cl)c1Cl [sensor 140, (E)-3-(3-((2-(2-(2,3-dichloro-4-(2-methylenebutanoyl)phenoxy)acetamido)ethyl)amino)-3-oxopropyl)-2-((1-(3-((2-(2-(2,3-dichloro-4-(2-methylenebutanoyl)phenoxy)acetamido)ethyl)amino)-3-oxopropyl)quinolin-4(1H)-ylidene)methyl)benzoidithiazol-3-ium iodide]",localization of fluorescence in live MDA-MB-231 cells,[2],distributed within the cell
same,turn-on fluorescence signal in the presence of GST-P1-1,"GST-P1-1 [3]; 90 nM GST-P1-1, after 30 min incubation",33 fold
same,emission signal in MCF-10A cells,healthy MCF-10A cells,much weaker emission signal
same,Kd,GST-P1-1 [7],0.029 µM
same,fluorescence response to addition of dsDNA (FIG. 21e),dsDNA,negligible fluorescence responses
